Columns and labels:
[1] = tested on: D427N PKCβII catalytic domain; assay: ADP-Glo in vitro kinase assay with ATP-competitive inhibitors, D427N compared with WT; type: biochemical; conditions: 50 μM ATP, 200 μM PSS peptide; IC50 of D427N higher than WT
Procedure: Given the proximity of the mutation to the nucleotide pocket of the kinase, we compared the potency of three ATP-competitive inhibitors in WT and D427N PKCβII to assess if existing PKC inhibitors could be used to target the mutant. We assayed WT and D427N PKCβII catalytic domains at 50 μM ATP with one indolocarbazole inhibitor (UCN-01) and two bisindolylmaleimide inhibitors (BIM-1 and the PKCβ-specific inhibitor ruboxistaurin) (Figure 5A–C). […] These differences were 17-fold for ruboxistaurin, 9-fold for BIM-1 and 25-fold for UCN-01.
Figure 5 Pharmacology of D427N PKCβII. A–C – Representative dose-response curves when WT and D427N PKCβII catalytic domains were assayed with the indicated inhibitors, 50 μM ATP and 200 μM PSS peptide. ADP produced in the assays was measured by luminescence and converted to specific activity using an ADP standard curve. Error bars indicate the mean ± SD from three technical replicates. D – IC50 values obtained from fitting curves in (A-C). Error bars indicate the mean ± SD from three independent dose-response assays (*=P<0.05, **=P<0.01 versus WT by t-test with Holm–Šídák correction for multiple comparisons). E,F – Orthogonal views of Ruboxistaurin (pink) in the PKCβII nucleotide-binding pocket (cyan). A σA-weighted |2Fo-Fc| map is shown contoured at 1.5 σ. The location of the N427 side chain is indicated. Figure was generated using UCSF ChimeraX.
Kinase assays were carried out in white, 384-well OptiPlates (PerkinElmer) using an ADP-Glo kit (Promega) on a scale of […] for the kinase reaction. Kinase was diluted in assay buffer (40 mM Tris-HCl pH 7.5, 20 mM MgCl2, 0.1 mg/ml BSA (NEB, #B9000S), 1 mM DTT) and added to the plate (typically 0.5–1 ng/well). The assay was started by adding the substrates at a final concentration of 50–300 μM [ATP and either histone type III-S (Sigma, #H5505), MBP (Sigma, #M1891), or a peptide]. […] Luminescence was recorded using an EnSight MultiMode Plate Reader (PerkinElmer), and the slope of a standard curve was used to convert luminescence values to specific activity in nmol ADP/min/mg.

[2] = target: D427N PKCβII catalytic domain; assay: Fluorescence polarisation binding of fluorescein-PSS peptide, D427N; conditions: catalytic domains
Procedure: Figure 3 D427N PKCβII has an altered substrate repertoire in vitro . A–D – Representative titration curves from assays of WT or D427N PKCβII catalytic domains with excess ATP and titrations of either histone type III-S, MBP, PSS peptide or BTK S180 peptide. Specific activity in nmol/min/mg was calculated using an ADP standard curve. Error bars indicate the mean ± SD from three technical replicates. E and F – Km and Vmax values of WT and D427N PKCβII catalytic domains for each substrate, obtained from Michaelis–Menten fits of titration curves in (A-D). Error bars indicate the mean ± SD from three independent assays (*=P<0.05, **=P<0.01 versus WT by t-test with Holm–Šídák correction for multiple comparisons). G – Representative binding curves of anisotropy vs protein concentration when WT or D427N PKCβII catalytic domains were titrated into fluorescein–PSS peptide; KD values are shown ± the error of the fit. […] H – Differential heat map of WT and D427N PKCβII activity towards a PamChip microarray, calculated from log2 fold change values relative to a no ATP control array. […] The measured ligand is the PSS peptide, and WT and D427N are protein variants.
Fluorescence polarisation (FP) experiments were performed using an FP-8500 spectrofluorometer (Jasco). […] Equilibrium dissociation constants were determined by plotting anisotropy as a function of PKCβII catalytic domain concentration. […]

## CNC1CC2OC(C)(C1OC)n1c3ccccc3c3c4c(c5c6ccccc6n2c5c31)C(=O)NC4O (stereo not shown) [UCN-01]
[1]
  difference in IC50, D427N PKCβII catalytic domain versus WT: 25 fold

## CN(C)CCCn1cc(C2=C(c3c[nH]c4ccccc34)C(=O)NC2=O)c2ccccc21 [BIM-1]
[1]
  difference in IC50, D427N PKCβII catalytic domain versus WT: 9 fold

## CN(C)C[C@@H]1CCn2cc(c3ccccc32)C2=C(C(=O)NC2=O)c2cn(c3ccccc23)CCO1 [ruboxistaurin]
[1]
  difference in IC50, D427N PKCβII catalytic domain versus WT: 17 fold

## CC(C)C[C@H](NC(=O)[C@H](CO)NC(=O)CNC(=O)[C@H](CCCCN)NC(=O)[C@H](CCCNC(=N)N)NC(=O)[C@H](C)NC(=O)[C@H](Cc1ccccc1)NC(=O)[C@H](CCCNC(=N)N)NC(=O)[C@@H](NC(=O)[C@@H](NC(=O)[C@H](CO)NC(=O)[C@H](CCC(=O)O)NC(=O)c1ccc2c(c1)C(=O)OC21c2ccc(O)cc2Oc2cc(O)ccc21)[C@@H](C)O)C(C)C)C(=O)N[C@@H](CCCNC(=N)N)C(=O)N[C@@H](CCC(N)=O)C(=O)N[C@@H](CCCCN)C(=O)N[C@@H](CC(N)=O)C(=O)N[C@H](C(=O)N[C@@H](Cc1c[nH]cn1)C(N)=O)C(C)C
[2]
  binding affinity of D427N PKCβII relative to WT (from KD values): two-fold weaker affinity than WT
